Reference: patent US9714266B2, “Estra-1,3,5(10),16-tetraene-3-carboxamides for inhibition of 17β-hydroxysteroid dehydrogenase (AKR1C3)” (priority 2013, dated 2017)
Where “and” joins values, the source holds several entries; their conditions need not be identical. Equal entries are not always repeated.

Legend:
AKR1C3 [1] = biological target: T1, AKR1C3 (Homo sapiens (Human), UniProt P42330); test: AKR1C3 enzyme assay (coumberone reduction, fluorescence); type: biochemical; settings: recombinant human AKR1C3, coumberone 0.3 μM, NADPH 10 μM; read-out: AKR1C3 enzyme inhibition IC50
T1 sequence (P42330 whole entry): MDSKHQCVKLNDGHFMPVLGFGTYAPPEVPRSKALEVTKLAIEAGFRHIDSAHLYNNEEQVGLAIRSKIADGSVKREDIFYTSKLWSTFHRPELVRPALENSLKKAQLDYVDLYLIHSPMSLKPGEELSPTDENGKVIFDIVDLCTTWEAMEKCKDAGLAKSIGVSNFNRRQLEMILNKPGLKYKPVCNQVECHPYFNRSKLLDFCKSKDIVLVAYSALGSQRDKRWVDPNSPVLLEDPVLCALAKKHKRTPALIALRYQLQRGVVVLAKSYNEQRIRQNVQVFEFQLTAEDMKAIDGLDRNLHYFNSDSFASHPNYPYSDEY
Experimental: The AKR1C3-inhibitory action of the substances of this invention was measured in the AKR1C3 assay described in the paragraphs which follow. Essentially, the enzyme activity is measured by quantifying the coumberol formed from coumberone ([…]., and […]. AM. CHEM. SOC. 130, 14123-14128 (2008) […]., Bauman, D. R., Penning, T. M., and […]., Proc. Natl. Acad. Sci. USA 103, 13304-13309 (2006)). In this assay, the increase in the highly fluorescent coumberol can be determined by NADPH (nicotinamide adenine dinucleotide phosphate)-dependent reduction of the nonfluorescent coumberone by AKR1C3. […] NM_003739). This was expressed as the GST (glutathione S-transferase) fusion protein in E. coli and purified by means of glutathione-Sepharose affinity chromatography. The GST was removed by thrombin digestion with subsequent size exclusion chromatography (Dufort, I., Rheault, P., Huang, X F., Soucy, P., and Luu-The, V., Endocrinology 140, 568-574 (1999)). […] The concentration of the AKR1C3 was matched to the respective activity of the enzyme preparation and set such that the assay worked within the linear range. Typical concentrations were in the region of 1 nM. The reaction was stopped by adding 5 μl of a stop solution consisting of the inhibitor EM-1404 [F. Labrie et al. U.S. Pat. […] Subsequently, the fluorescence of coumberol was measured at 520 nm (excitation at 380 nm) with a suitable measuring instrument (Pherastar from BMG Labtechnologies).

AKR1C3 [2] = biological target: T1, AKR1C3; test: AKR1C3 inhibition in a cell-based system (transfected HEK293 cells, coumberol fluorescence); settings: HEK293 cells transfected with AKR1C3 expression plasmid; read-out: Cellular AKR1C3 inhibition IC50
Experimental: The inhibition of AKR1C3 by the substances described in this invention was measured in a cell-based assay using […] as the substrate for the AKR1C3 (Halim, M., Yee, D. J., and Sames, D., J. AM. CHEM. SOC. 130, 14123-14128 (2008) and Yee, D. J., Balsanek, V., Bauman, D. R., Penning, T. M., and Sames, D., Proc. Natl. Acad. Sci. USA 103, 13304-13309 (2006)) (cf. Example 48).
The cell system used was HEK293 cells (ATCC, USA) (cell culture medium: DMEM, 1.5 g of glucose, 10% FCS, PSG). The cells were transfected with an AKR1C3 expression plasmid (pCMV6-AC-AKR1C3, GenBank Accession No. NM_003739.4) overnight (X-tremeGENE HP, Roche). The next morning, the cells were sown into black 96-well culture plates with a cell density of 40 000 cells/well (Greiner Bio-One, Frickenhausen, Germany). 7 h later, the cells were incubated with the test substances (dissolved in 100× concentration in DMSO, final concentration between 10^−11M and 10^−5M) and […] (dissolved in cell culture medium, final concentration 5×10^−6M) overnight. The following morning, the fluorescence of coumberol was measured at 535 nm (excitation at 355 nm) with a suitable measuring instrument (Mithras, from Berthold). […] The data were normalized (transfected cells without inhibitor, only DMSO=0% inhibition; transfected cells, 10 μM EM-1404 inhibitor [F. Labrie et al. U.S. Pat. No. 6,541,463, 2003]=100% inhibition) and IC50 values were calculated by a 4-parameter fit.

recombinant human AKR1C1 = recombinant human AKR1C1 (Homo sapiens (Human), UniProt Q04828); test: AKR1C1 inhibition (NADPH consumption, phenanthrenequinone); type: biochemical
Sequence of recombinant human AKR1C1 (Q04828 whole entry, the tested form may be a part): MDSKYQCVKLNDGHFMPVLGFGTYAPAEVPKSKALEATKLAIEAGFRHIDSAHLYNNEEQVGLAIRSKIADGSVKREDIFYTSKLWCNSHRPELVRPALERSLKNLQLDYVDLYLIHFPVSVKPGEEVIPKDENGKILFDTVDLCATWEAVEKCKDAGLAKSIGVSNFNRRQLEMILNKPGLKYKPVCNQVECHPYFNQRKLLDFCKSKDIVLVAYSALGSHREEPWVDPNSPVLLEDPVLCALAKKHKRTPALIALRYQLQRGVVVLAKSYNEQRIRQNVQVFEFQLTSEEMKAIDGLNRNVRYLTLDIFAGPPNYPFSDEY
Experimental: (§1) The AKR1C1/AKR1C2/AKR1C4-inhibitory action of the inventive substances, for determination of the selectivity of this invention, was measured in the assay described in the paragraphs which follow. Essentially, the enzyme activity is measured by the quantification of NADPH (nicotinamide adenine dinucleotide phosphate) consumption in the conversion of phenanthrenequinone (PQ) by the AKR1C enzymes. […] NM_001353.5, NM_001354, NM_001818). This was expressed as the GST (glutathione S-transferase) fusion protein in E. coli and purified by means of glutathione-Sepharose affinity chromatography. The GST was removed by thrombin digestion with subsequent size exclusion chromatography (Dufort, I., Rheault, P., Huang, X F., Soucy, P., and Luu-The, V., Endocrinology 140, 568-574 (1999)). […] The mixture was incubated at 37° C. for 3 h, and the fluorescence was determined at the end of the reaction. […] Typically, the test substances were tested on the same microtitre plate in […] in the range from 10 μM to 1 pM (10 μM, 1 μM, 100 nM, 10 nM, 1 nM, 100 pM, 10 pM, 1 pM). As described, the pharmacological substances claimed were tested for their inhibitory effect on AKR1C enzymes 1, 2 and 4 (see Table 4).

recombinant human AKR1C2 = recombinant human AKR1C2 (Homo sapiens (Human), UniProt P52895); test: AKR1C2 inhibition (NADPH consumption, phenanthrenequinone); type: biochemical
Sequence of recombinant human AKR1C2 (P52895 whole entry): as the sequence (Q04828 whole entry, the tested form may be a part) above, with T38V, R47H, L54V, C87S, V151M, R170H, Q172L counted along it
Experimental: as §1

recombinant human AKR1C4 = recombinant human AKR1C4 (Homo sapiens (Human), UniProt P17516); test: AKR1C4 inhibition (NADPH consumption, phenanthrenequinone); type: biochemical
Sequence of recombinant human AKR1C4 (P17516 whole entry): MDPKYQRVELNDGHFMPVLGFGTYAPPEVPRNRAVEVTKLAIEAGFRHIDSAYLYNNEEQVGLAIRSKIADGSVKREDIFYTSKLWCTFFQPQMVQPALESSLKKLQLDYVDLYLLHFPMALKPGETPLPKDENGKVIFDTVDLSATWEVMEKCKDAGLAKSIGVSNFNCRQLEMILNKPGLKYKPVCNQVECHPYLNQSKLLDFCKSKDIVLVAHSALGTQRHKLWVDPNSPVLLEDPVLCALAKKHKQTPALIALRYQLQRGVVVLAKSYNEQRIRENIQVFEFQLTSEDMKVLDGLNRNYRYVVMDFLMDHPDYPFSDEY
Experimental: as §1

Human CYP17A1 = Human CYP17A1 (Homo sapiens (Human), UniProt P05093); test: Inhibition of Cyp17A1 (recombinant enzyme, 3H-progesterone conversion, HPLC); type: biochemical; settings: for IC50: human CYP17, mean of 3 or 4 independent IC50 values, read-out: IC50 ± SD CYP17
Sequence of Human CYP17A1 (P05093 whole entry): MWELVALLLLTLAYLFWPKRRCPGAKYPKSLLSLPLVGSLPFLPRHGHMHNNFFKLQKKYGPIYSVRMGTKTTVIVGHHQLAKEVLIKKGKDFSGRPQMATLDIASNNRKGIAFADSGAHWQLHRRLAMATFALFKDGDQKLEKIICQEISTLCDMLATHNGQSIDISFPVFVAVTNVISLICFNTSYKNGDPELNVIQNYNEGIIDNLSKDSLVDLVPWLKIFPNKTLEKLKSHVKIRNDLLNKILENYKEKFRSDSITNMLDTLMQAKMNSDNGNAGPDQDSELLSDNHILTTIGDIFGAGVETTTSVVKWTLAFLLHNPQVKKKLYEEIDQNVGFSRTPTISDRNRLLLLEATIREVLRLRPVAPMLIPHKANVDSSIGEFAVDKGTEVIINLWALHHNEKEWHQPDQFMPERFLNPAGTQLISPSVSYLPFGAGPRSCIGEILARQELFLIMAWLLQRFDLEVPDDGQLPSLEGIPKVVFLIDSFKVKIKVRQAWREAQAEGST
Experimental: The inhibition of CYP17A1 by the test compounds was evaluated by means of recombinant enzyme. Human CYP17A1 was expressed in E. coli (Ehmer, P. B. et al.; J. Steroid Biochem. Mol. […] After evaporating the organic phase, the steroids were taken up in acetonitrile. 16α-Hydroxyprogesterone, 17α-hydroxyprogesterone and progesterone were separated with acetonitrile/water (45:55) as mobile phase on a C18 reverse phase chromatography column (Nucleodur C18 Gravity, 3 μm, Macherey-Nagel, Düren) in an HPLC System (Agilent 1100 Series, Agilent Technologies, Waldbronn). Detection and quantification of the steroids were conducted by means of a Radioflow detector (Berthold Technologies, Bad Wildbad). The inhibition was calculated by the following formula: [formula] Each value was calculated from at least three independent experiments.

SMILES | IC50 (AKR1C3 [1]) | IC50 (AKR1C3 [2]) | Inhibition of AKR1C1 (in words) (recombinant human AKR1C1) | Inhibition of AKR1C2 (in words) (recombinant human AKR1C2) | Inhibition of AKR1C4 (in words) (recombinant human AKR1C4) | IC50 (Human CYP17A1) [nM] | other results
C[C@]12CC[C@@H]3c4ccc(C(N)=O)cc4CC[C@H]3[C@@H]1CC=C2c1cccnc1 [Example 1, 17-(pyridin-3-yl)oestra-1,3,5(10),16-tetraene-3-carboxamide] | 5 nM and 6 nM | 27 nM and 28 nM and 66 nM and 13 nM | no inhibition | no inhibition | no inhibition |  | AKR1C1 enzyme inhibition IC50 (recombinant human AKR1C1; tested up to 10 μM): no effect; AKR1C2 enzyme inhibition IC50 (recombinant human AKR1C2; tested up to 10 μM): no effect; AKR1C4 enzyme inhibition IC50 (recombinant human AKR1C4; tested up to 10 μM): no effect
C[C@]12CC[C@@H]3c4ccc(C(N)=O)cc4CC[C@H]3[C@@H]1CC=C2c1cncc(F)c1 [Example 4, 17-(5-fluoropyridin-3-yl)oestra-1,3,5(10),16-tetraene-3-carboxamide] | 4 nM |  |  |  |  | > 20000 | 
C[C@]12CC[C@H](O)CC1=CC[C@@H]1[C@@H]2CC[C@]2(C)C(c3cccnc3)=CC[C@@H]12 [Abiraterone, reference compound] |  |  |  |  |  |  | Inhibition of Cyp17A1 (in words) (Human CYP17A1; up to a substance concentration of 20 μM where stated): active
C[C@]12CC[C@@H]3c4ccc(C(=O)NCC(O)C(F)(F)F)cc4CC[C@H]3[C@@H]1CC=C2c1cncc(F)c1 (mixture of isomers) [Example 20, 17-(5-fluoropyridin-3-yl)-N—[(RS)-3,3,3-trifluoro-2-hydroxypropyl]oestra-1,3,5(10),16-tetraene-3-carboxamide] | 12 nM and 8 nM and 20 nM and 16 nM | 32 nM and 42 nM |  |  |  | > 20000 | 
O=C1OC(c2ccc(O)cc2)(c2ccc(O)cc2)c2ccccc21 [phenolphthalein] |  |  | shows inhibition | shows inhibition | shows inhibition |  | IC50 (recombinant human AKR1C1; tested up to 10 μM, read-out: AKR1C1 enzyme inhibition IC50): 46 nM and 60 nM; IC50 (recombinant human AKR1C2; tested up to 10 μM, read-out: AKR1C2 enzyme inhibition IC50): 554 nM and 438 nM; IC50 (recombinant human AKR1C4; tested up to 10 μM, read-out: AKR1C4 enzyme inhibition IC50): 21 nM and 17 nM
